Reference: patent US10052340B2 (XIAMEN UNIVERSITY, priority 2012, dated 2018)

Legend:
[1] = tested on: FXR gene deletion homozygous mice (FXR−/−); experiment: Mouse trial, FXR knockout mice fed with high-fat diet; format: in vivo; conditions: 1.3 mg/kg i.p. daily, 14 days
Method: (§1) Wild-type C57BL/6J mice of 9-10 weeks old, and FXR gene deletion homozygous mice (FXR^−/−) and diabetes and obesity mouse model mice (KK-Ay) with the same background are used, fed with high-fat diet (Research Diets, D12492), with free access to water, in SPF grade animal room in experimental animal center, Xiamen University. […] Intraperitoneal injection is performed one time at 9 o'clock every morning, continued for 14 days, and the mice are measured for body weight and the food intake every two days. At the end of 14 days, the mice are provided with free access to water, and after being hungry for 6 h, the mouse body weights are measured, and the percentage of the final body weight relative to the initial body weight before the treatment of the injection trial indicates the change of mouse body weight. Then blood is sampled from the eye balls, and sera are obtained by separation. The components in serum are detected by the following kits respectively: sugar-oxidase method (Beijing Applygen); insulin (Crystal Chem. Inc., USA); total cholesterol and cholesterol in high and low density lipoprotein (Bioassay Systems, USA); triglyceride (Beijing Applygen and WAKO Chemicals Inc., Japan); free fatty acids (Bioassay Systems, USA); and aspartate aminotransferase and alanine aminotransferase (Biosino Bio-technology and Science Inc., Beijing, China). Mouse liver is taken, a part of which is fixed with paraformaldehyde, and embedded with paraffin, sectioned, and stained with hematoxylin and eosin, and a part of which is cryopreserved with liquid nitrogen for use in extracting RNA for measuring gene expression with fluorescence quantitative PCR.

[2] = tested on: wild-type C57BL/6J mice; experiment: Mouse trial, wild-type mice fed with high-fat diet; conditions: high-fat diet, 1.3 mg/kg i.p. daily, 14 days
Method: as §1

[3] = tested on: KK-Ay mice; experiment: Mouse trial, KK-Ay diabetes and obesity model mice fed with high-fat diet; format: in vivo; conditions: for cholesterol in high density lipoprotein in serum / cholesterol in low density/very low density lipoprotein in serum / serum saccharides (glucose) level: 1.3 mg/kg i.p. daily, 14 days; for serum cholesterol / serum triglycerides: ivermectin/derivatives 1.3 mg/kg
Source text: In order to detect the efficacy of abamectin/avermectin, ivermectin and the derivative doramectin in the body of a diabetes and obesity mouse model, we choose diabetes and obesity mouse model mice, KK-Ay mice, as the experimental subject.

[4] = i.p. daily 14 days, GW4064 30 mg/kg

| SMILES | serum cholesterol level [1] | serum glucose level [1] | cholesterol level in high density lipoprotein [2] | cholesterol levels in low density and very low density lipoprotein [2] | serum cholesterol level [2] | serum glucose level [2] | serum triglyceride (Tg) level [2] | cholesterol in high density lipoprotein in serum [3] | cholesterol in low density/very low density lipoprotein in serum [3] | serum saccharides (glucose) level [3] | serum cholesterol [3, 4] | serum triglycerides [3, 4] | serum free fatty acids ([3]; i.p. daily 14 days, ivermectin 1.3 mg/kg, GW4064 30 mg/kg) |
| --- | --- | --- | --- | --- | --- | --- | --- | --- | --- | --- | --- | --- | --- |
| CO[C@H]1C[C@H](O[C@H]2[C@H](C)O[C@@H](O[C@@H]3/C(C)=C/C[C@@H]4C[C@@H](C[C@]5(C=C[C@H](C)[C@@H](C6CCCCC6)O5)O4)OC(=O)[C@@H]4C=C(C)[C@@H](O)[C@H]5OC/C(=C\C=C\[C@@H]3C)[C@]54O)C[C@@H]2OC)O[C@@H](C)[C@@H]1O [doramectin] | not producing any significant change | not producing any significant change | significantly downregulated | downregulated | significantly decreases | significantly decreases | significantly decrease | significantly decrease | significantly decrease | significantly decrease | decreased | significantly decrease | – |
| CC(C)c1onc(-c2c(Cl)cccc2Cl)c1COc1ccc(/C=C/c2cccc(C(=O)O)c2)c(Cl)c1 [GW4064] | – | – | – | – | – | – | – | – | – | – | significantly decrease | significantly decrease | significantly decrease |
| CCC(C)[C@H]1O[C@]2(C=C[C@@H]1C)C[C@@H]1C[C@@H](C/C=C(\C)[C@@H](O[C@H]3C[C@H](OC)[C@@H](O[C@H]4C[C@@H](OC)[C@H](O)[C@@H](C)O4)[C@H](C)O3)[C@@H](C)/C=C/C=C3\CO[C@@H]4[C@H](O)C(C)=C[C@@H](C(=O)O1)[C@]34O)O2 (stereo partly shown) [abamectin/avermectin] | – | – | significantly downregulated | downregulated | significantly decreases | significantly decreases | significantly decrease | significantly decrease | significantly decrease | significantly decrease | decreased | significantly decrease | – |
